From EP0284202A1, “Substituted hydantoin compounds” (THE WELLCOME FOUNDATION LIMITED, priority 1987, dated 1988) come the findings set out here.

Test [1] addresses T1, PGD₂ receptor on the human platelet (Homo sapiens, UniProt Q13258).
T1 construct: endogenous in cells; host or cells: washed human platelets
T1 sequence (Q13258 1-359): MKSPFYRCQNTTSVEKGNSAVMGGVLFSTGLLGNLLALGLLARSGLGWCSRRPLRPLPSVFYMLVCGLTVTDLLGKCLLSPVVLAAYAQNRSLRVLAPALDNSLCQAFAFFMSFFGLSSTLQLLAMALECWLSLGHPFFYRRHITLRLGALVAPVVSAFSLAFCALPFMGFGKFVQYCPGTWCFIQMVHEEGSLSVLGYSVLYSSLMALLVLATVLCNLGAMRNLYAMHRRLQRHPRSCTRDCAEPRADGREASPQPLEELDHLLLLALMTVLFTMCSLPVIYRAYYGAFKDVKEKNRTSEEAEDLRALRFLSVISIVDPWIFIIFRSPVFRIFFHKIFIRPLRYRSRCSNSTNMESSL
Briefly: Inhibition of ADP-induced aggregation in washed human platelets: antagonism of PGD₂ and compound A, Schild analysis. Type of test: cell-based. As for the experimental part:
Washed platelet suspensions were prepared according to a modified version of the method of Vargas et al (Prostaglandins (1982) 23, 929). The suspension was then stored at 4°C for 2 hours and, before use, the following additions were made: Ca⁺⁺ʼ […], indomethacin, 5mcg ml⁻¹; and fibrinogen, 400 mcg ml⁻¹. Aggregation responses were measured using 0.5ml aliquots of the suspension maintained at 37°C and stirred with a metal bar at 900 r.p.m. in 300 BD-S Payton dual channel aggregometers and recorded on Gould BS 272 pen recorders.
Inhibition of platelet aggregation by PGD₂ and compound A were studied as follows. The prostaglandin receptor agonists were incubated in the platelet suspension for 6 minutes prior to adding ADP (5 × 10⁻⁵M). The reproducibility of the ADP-induced aggregation response was checked at intervals throughout the experiment. Antagonists were added 2 minutes before the agonist. Responses were expressed as percent inhibitions of the standard ADP-induced aggregation.
(§1) Measurement of antagonist affinity (pKB) was by Schild analysis.

Test [2] deals with rabbit jugular vein. Briefly: Rabbit jugular vein relaxation: antagonism of PGD₂ and compound A. As to conditions: potency compared with the antagonism in platelet aggregation. As to the method: Vascular smooth muscle relaxation in response to PGD₂ and compound A was measured as changes in isometric force. Isolated ring segments of rabbit jugular vein suspended in Kreb's buffer, gassed with 95% O₂/5% CO₂ and maintained at 37°C, were treated with: indomethacin, 1 µg ml⁻¹, and the stable thromboxane receptor antagonist BM13177 (Patscheke et al, Biomed. Biochem. Acta (1984) 43, 5321), 30µM. The experiments followed a paired curve design.
Initially, the jugular vein ring segments were subjected to a force of 0.75g, then allowed to stabilize for a period of 60 minutes during which time the preparations were washed three times. Subsequently histamine (10⁻⁶M) was added to produce tone. After establishing a stable contraction, relaxation/concentration effect curves were obtained using prostaglandin receptor agonists. Responses were expressed as per cent relaxations of the histamine-induced force. The preparations were then washed thoroughly and allowed to re-stabilise. The antagonists were then incubated for 60 minutes prior to constriction with histamine (10⁻⁶M), followed by a second determination of the prostaglandin agonist concentration effect curve.
as §1

The test system of test [3] is prostaglandin receptors other than DP. Nature of the test: Actions at other prostaglandin receptors (selectivity). As to conditions: actions not observed up to this multiple.

By Kb is commonly meant the affinity of an antagonist, worked out from how it opposes an agonist. In the case of `O=C(O)CCCCCCC1C(=O)N(Cc2ccccc2)C(=O)N1NCC(O)C1CCCCC1` (centres unmarked) [Example 3, 3-Benzyl-5-(6-carboxylhexyl)-1-(2-hydroxy-2-cyclohexylethylamino) hydantoin], the Kb in test [1] (antagonist affinity by Schild analysis, shifts of anti-aggregatory concentration effect curves for PGD₂ and compound A, human washed platelets) was 550 pM. For the same compound, the Schild plot slope entry in test [1] (anti-aggregatory concentration effect curves for PGD₂ and compound A, human washed platelets) was “unity”. Besides, the “behaviour at the PGD₂ receptor on the human platelet” value in test [1] (human washed platelet assay, agonists PGD₂ and compound A) was “simple competitive antagonist”. The “antagonism of the relaxation effects of PGD₂ and compound A” value in test [2] is “antagonised with similar potencies”. The “concentrations without actions at prostaglandin receptors other than DP, relative to that required for DP receptor affinity” value in test [3] is > 1000 ×.
